# Measurements reported in US11945832B2, “Psilocybin and O-acetylpsilocin, salts and solid state forms thereof” (Terran Biosciences Inc., priority 2021, dated 2024).
# Entries after “also recorded” stand apart in the source; their conditions may differ.
# What was measured:
# [1] = Dynamic vapor sorption (DVS) analysis, hygroscopicity; format: physicochemical; conditions: for solid form of post-DVS specimen (XRPD): after DVS 5-95-5% RH; for overall water uptake (DVS): 5-95% RH
# Procedure: (§1) DVS analysis was carried out using a TA Instruments Q5000 Dynamic Vapor Sorption analyzer. The instrument was calibrated with standard weights and a sodium bromide standard for humidity. Approximately 10-25 mg of sample was loaded into a metal-coated quartz pan for analysis. The sample was analyzed at 25° C. with a maximum equilibration time of one hour in 10% relative humidity (RH) steps from 5 to 95% RH (adsorption cycle) and from 95 to 5% RH (desorption cycle). The movement from one step to the next occurred either after satisfying the equilibrium criterion of 0.01% weight change or, if the equilibrium criterion was not met, after one hour. The percent weight change values were calculated using Microsoft Excel®.
# as §1, with “Dynamic Vapor Sorption (DVS)” for “DVS”, “is” for “was”, “is” for “were”, “Excel.” for “Excel®.”
# [2] = Hygroscopicity test in relative humidity (RH) jars; format: physicochemical
# Procedure: Solids deliquesced within approx. 1 hour of exposure to elevated relative humidity. The sample was capped and placed in a freezer for storage.
# [3] = test system: Psilocybin Induced Head Twitches in Mice; experiment: Psilocybin-induced head-twitch response in mice, 5-HT2A antagonist given i.v. after psilocybin; format: in vivo, C57BL/6J mice; conditions: for Result (suppression of psilocybin-induced head twitch): 5HT2A antagonist i.v. at T=7 min, summary of Examples 13-21; for effect on psilocybin-induced head twitch (summary of Examples 13-21): administered after psilocybin, compared to vehicle-treated mice, dose not given; for suppression of psilocybin-induced head-twitch response: monitored until 40 min
# Text: The head-shake response is elicited by a wide variety of known hallucinogens such as LSD, psilocybin, psilocin, N,N-dimethyltryptamine (DMT), and mescaline as well as serotonin-releasing agents and direct 5-HT2 agonists. […] Later studies have confirmed 5-HT2A receptors are the primary, direct mediators of the response and that the headshake response in rats is essentially the same as head-twitches in mice, at least in regards to similarity in appearance and 5-HT2A receptor dependence.
# Male C57BL/6J mice (approximately 25 g) were group housed. Animals were maintained under a 12 h light/dark cycle, at 23° C. with humidity controlled.
# Psilocybin was formulated in saline at a concentration of 0.4 mg/mL to give a dose of 2 mg/kg when administered i.p. in a 5 mL/kg dosing volume.
# (§2) At T=−60 min, C57BL/6J mice were individually housed into transparent observation cages with bedding removed and left to habituate. At T=−3 min, mice were placed into heated cages at 40° C. At T=0 h, groups of 3 mice were dosed intraperitoneally with psilocybin (2 mg/kg). Following dosing, mice were replaced into the heated cages and head-twitch responses continuously scored for 7 min. After 7 min, mice were intravenously dosed via the lateral tail vein with either vehicle 1 (saline) or volinanserin 1 mg/kg in 5 mL/kg dosing volumes. Mice were replaced into the observation cages and head twitch behavior were monitored until 40 min after agonist dosing. Cumulative head-twitches were measured every 2 minutes until 40 minutes after agonist dosing.
# as §2, with “min. […]” for “min. After 7 min, mice were intravenously dosed via the lateral tail vein with either vehicle 1 (saline) or volinanserin 1 mg/kg in 5 mL/kg dosing volumes.”, “behavior was” for “behavior were”, “Cumulative head-twitch behavior was” for “Cumulative head-twitches were”
# as §2, with “min. […]” for “min. After 7 min, mice were intravenously dosed via the lateral tail vein with either vehicle 1 (saline) or volinanserin 1 mg/kg in 5 mL/kg dosing volumes.”, “behavior was” for “behavior were”, “Cumulative head-twitch behavior was” for “Cumulative head-twitches were”
# as §2, with “min. […]” for “min. After 7 min, mice were intravenously dosed via the lateral tail vein with either vehicle 1 (saline) or volinanserin 1 mg/kg in 5 mL/kg dosing volumes.”, “behavior was” for “behavior were”, “Cumulative head-twitch behavior was” for “Cumulative head-twitches were”
# as §2, with “min. […]” for “min. After 7 min, mice were intravenously dosed via the lateral tail vein with either vehicle 1 (saline) or volinanserin 1 mg/kg in 5 mL/kg dosing volumes.”, “behavior was” for “behavior were”, “Cumulative head-twitch behavior was” for “Cumulative head-twitches were”
# [4] = Estimated solubilities of psilocybin (solvent aliquot addition, visual inspection); format: physicochemical; conditions: room temperature
# Text: Solubilities of psilocybin in a few solvents were estimated.
# [5] = Estimated aqueous solubility of O-acetyl psilocin salts (aliquot addition method); conditions: bounds printed as 'Small particles present at ≤ x mg/mL'
# Procedure: Whether dissolution had occurred was judged by visual inspection after addition of each solvent aliquot. […] Solubility numbers were calculated by dividing the weight of the sample by the total amount of solvent used to dissolve the sample. […] The solubility number is expressed as “greater than or equal to” if dissolution occurred on addition of the first solvent aliquot.
# [6] = C57BL/6J mice, psilocybin 2 mg/kg i.p. at T=0, head twitches scored to 40 min
# [7] = antagonist 1 mg/kg i.v. 7 min after psilocybin 2 mg/kg i.p.
# [8] = antagonist 4 mg/kg i.v. 7 min after psilocybin 2 mg/kg i.p.
compound,measurement,setting,value
"CC(=O)Oc1cccc2[nH]cc(CCN(C)C)c12.O=C(O)C[C@H](O)C(=O)O [L-malate salt, Form B, O-Acetyl Psilocin Malate]","hygroscopicity (DVS), in words",[1]; 5-85% RH,non-hygroscopic
same,hydrate formation on DVS,[1]; above 85% RH,no hydrate formation occurred
same,hydrate formation on DVS,"[1]; above 85% RH, listed as Malate B",possible hydrate formation
same,water uptake (DVS),"[1]; above 85% RH, unit not given",approx. 4.500
same,solid form of post-DVS specimen (XRPD),[1],consistent with Form B
"CC(=O)Oc1cccc2[nH]cc(CCN(C)C)c12.O=C(O)C(O)C(O)C(=O)O [L-tartrate salt, Form A, O-Acetyl Psilocin Tartrate]","hygroscopicity (DVS), in words",[1]; 5-85% RH,non-hygroscopic
same,hydrate formation on DVS,[1]; above 85% RH,consistent with hydrate formation
same,water uptake (DVS),[1]; above 85% RH,approx. 6%
same,hydrate formation on DVS,"[1]; above 85% RH, listed as Tartrate A",possible hydrate formation
same,solid form of post-DVS specimen (XRPD),[1],consistent with Form A by XRPD analysis and exhibited additional diffraction peaks
"CC(=O)Oc1cccc2[nH]cc(CCN(C)C)c12.O=C(O)C(O)C(O)C(=O)O [L-tartrate, Form A]",hygroscopicity,"[1]; 5-85% RH, DVS",non-hygroscopic
same,hydrate formation (DVS),"[1]; DVS, at high RH",resulting in hydrate
same,Water uptake,"[1]; above 85% RH, DVS",~6%
same,hygroscopicity,"[1]; above 85% RH, DVS",hygroscopic
CC(=O)Oc1cccc2[nH]cc(CCN(C)C)c12.Cl [O-acetyl psilocin hydrochloride],time to deliquescence,[2]; open vial in 75% RH jar,≤ 1 h
"CC(=O)Oc1cccc2[nH]cc(CCN(C)C)c12.O=C(O)/C=C/C(=O)O [O-acetylpsilocin-fumarate Form A, O-acetylpsilocin-fumarate]",overall water uptake (DVS),[1],approx. 0.1%
same,"hygroscopicity (DVS), in words",[1]; whole RH range (5-95% RH),non-hygroscopic
O=c1[nH]c2ccccc2n1CCN1CCN(c2cccc(C(F)(F)F)c2)CC1 [flibanserin],Result (suppression of psilocybin-induced head twitch),[3]; [6],Partial suppression of head twitch
same,effect on psilocybin-induced head twitch (summary of Examples 13-21),[3],partial suppression
same,suppression of psilocybin-induced head-twitch response,[3]; [7],partially suppressed
same,suppression of psilocybin-induced head-twitch response,[3]; [8],partially suppressed
O=C(c1ccc(F)cc1)C1CCN(CCn2c(=O)[nH]c3ccccc3c2=O)CC1 [ketanserin],suppression of psilocybin-induced head-twitch response,[3]; antagonist 2 mg/kg i.v. 7 min after psilocybin 2 mg/kg i.p.,completely suppressed
"CC(=O)Oc1cccc2[nH]cc(CCN(C)C)c12.O=C(O)/C=C\C(=O)O [maleate salt, Form A, O-acetyl psilocin maleate]",overall water uptake (DVS),[1],approx. 0.8%
same,solid form of post-DVS specimen (XRPD),[1],consistent with Form A
same,"hygroscopicity (DVS), in words",[1]; whole RH range (5-95% RH),non-hygroscopic
same,"hygroscopicity (DVS), in words","[1]; whole RH range (5-95% RH), listed as maleate salt",minimal water sorption
"CC(=O)Oc1cccc2[nH]cc(CCN(C)C)c12.CS(=O)(=O)O [mesylate salt, Form A, O-Acetyl Psilocin Mesylate]","hygroscopicity (DVS), in words",[1]; 5-55% RH,non-hygroscopic
same,water uptake (DVS),[1]; above 55% RH,40%
same,solid form of post-DVS specimen (XRPD),[1],liquid
COc1ccc(NC(=O)Nc2ccc(F)cc2F)cc1-c1c(Br)cnn1C [nelotanserin],Result (suppression of psilocybin-induced head twitch),[3]; [6],"Partial suppression of head twitch,"
same,Result (suppression of psilocybin-induced head twitch) at high dose,"[3]; C57BL/6J mice, psilocybin 2 mg/kg i.p. at T=0, antagonist at high dose (nelotanserin 4 mg/kg i.v.) at T=7 min, head twitches scored to 40 min",full suppression at high dose
same,effect on psilocybin-induced head twitch (summary of Examples 13-21),[3],partial suppression
same,suppression of psilocybin-induced head-twitch response,[3]; [7],partially suppressed
same,suppression of psilocybin-induced head-twitch response,[3]; [8],completely suppressed; also recorded: completed suppressed
"CC(=O)Oc1cccc2[nH]cc(CCN(C)C)c12.O=P(O)(O)O [phosphate salt (Forms A+B), O-acetyl psilocin phosphate]","hygroscopicity by RH jars, in words",[2]; RH jars,low
N#Cc1c[nH]c2c(C(=O)N3CCN(CCc4ccc(F)cc4)CC3)cccc12 [pruvanserin],Result (suppression of psilocybin-induced head twitch),[3]; [6],Full suppression of head twitch
same,effect on psilocybin-induced head twitch (summary of Examples 13-21),[3],full ending
same,suppression of psilocybin-induced head-twitch response,[3]; [7],completely suppressed
CN(C)CCc1c[nH]c2cccc(OP(=O)(O)O)c12 [psilocybin],solid form of post-DVS specimen (XRPD),[1],converted to a hydrate Form B; also recorded: Crystalline Form B (hydrate)
same,solubility,"[4]; organic solvent or mixture, thermodynamic from solid, 1,4-dioxane",< 1000 µg/mL
same,solubility,"[4]; organic solvent or mixture, thermodynamic from solid, 2-propanol (2-PrOH)",< 1000 µg/mL
same,solubility,"[4]; organic solvent or mixture, thermodynamic from solid, Acetone",< 1000 µg/mL
same,solubility,"[4]; organic solvent or mixture, thermodynamic from solid, Acetonitrile (ACN)",< 1000 µg/mL
same,solubility,"[4]; organic solvent or mixture, thermodynamic from solid, Dichloromethane (DCM)",< 1000 µg/mL
same,solubility,"[4]; organic solvent or mixture, thermodynamic from solid, Ethanol (EtOH)",< 1000 µg/mL
same,solubility,"[4]; organic solvent or mixture, thermodynamic from solid, Ethyl acetate (EtOAc)",< 1000 µg/mL
same,solubility,"[4]; organic solvent or mixture, thermodynamic from solid, Methanol (MeOH)",11000 µg/mL
same,solubility,"[4]; organic solvent or mixture, thermodynamic from solid, Tetrahydrofuran (THF)",< 1000 µg/mL
same,solubility,"[4]; thermodynamic from solid, Water",4000 µg/mL
Cc1nc2sccn2c(=O)c1CCN1CCC(=C(c2ccc(F)cc2)c2ccc(F)cc2)CC1 [ritanserin],Result (suppression of psilocybin-induced head twitch),[3]; [6],Full suppression of head twitch
same,effect on psilocybin-induced head twitch (summary of Examples 13-21),[3],full ending
same,suppression of psilocybin-induced head-twitch response,[3]; [7],completely suppressed
COc1cccc([C@H](O)C2CCN(CCc3ccc(F)cc3)CC2)c1OC [volinanserin],Result (suppression of psilocybin-induced head twitch),[3]; [6],Full suppression of head twitch
same,effect on psilocybin-induced head twitch (summary of Examples 13-21),[3],full ending
same,suppression of psilocybin-induced head-twitch response,[3]; [7],completely suppressed
Maleate,Water solubility,[5],>50000 µg/mL
